# From PubChem BioAssay AID1963446 (Molecular Pharmacology Branch, DTP, NCI, 2024)
# System: 993429-296-R-J1-PDC complex spheroid growth, percent test/control
# Assay: Anticancer human tumor 993429-296-R-J1-PDC patient-derived uterine sarcoma cell line growth inhibition [Asc]
# Conditions: for IC50: curve of first compound; for viability, T/C: stronger effect = lower value
# How it was run: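 Complex solid-tumor spheroids incorporating human endothelial and mesenchymal stem cells received single agents or combinations over half-log dilution ranges anchored to clinical Cmax.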
# 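Note: spheroids exposed to compounds for seven days.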
smiles,measurement,setting,value
Cn1ncnc1[C@H]1c2n[nH]c(=O)c3cc(F)cc(c23)N[C@@H]1c1ccc(F)cc1 + CNC(C)C(=O)NC1CN(S(=O)(=O)c2cccc(S(=O)(=O)N3CCC4CCC(C(=O)NC(c5ccccc5)c5ccccc5)N4C(=O)C(NC(=O)C(C)NC)C3)c2)CCC2CCC(C(=O)NC(c3ccccc3)c3ccccc3)N2C1=O,IC50,second compound 0.01 µM,4.14 nM
same,IC50,second compound 0.0316 µM,7.99 nM
same,IC50,second compound 0.1 µM,3.94 nM
same,IC50,second compound 0.316 µM,5.81 nM
same,IC50,second compound 1 µM,< 0.316 nM
same,"viability, T/C","second compound 0.01 µM, first compound 0.000316 µM",75.9%
same,"viability, T/C","second compound 0.01 µM, first compound 0.001 µM",54.9%
same,"viability, T/C","second compound 0.01 µM, first compound 0.00316 µM",52.7%
same,"viability, T/C","second compound 0.01 µM, first compound 0.01 µM",47%
same,"viability, T/C","second compound 0.01 µM, first compound 0.0316 µM",32.6%
same,"viability, T/C","second compound 0.01 µM, first compound 0.1 µM",21.3%
same,"viability, T/C","second compound 0.0316 µM, first compound 0.000316 µM",60.4%
same,"viability, T/C","second compound 0.0316 µM, first compound 0.001 µM",69.1%
same,"viability, T/C","second compound 0.0316 µM, first compound 0.00316 µM",54.1%
same,"viability, T/C","second compound 0.0316 µM, first compound 0.01 µM",48.9%
same,"viability, T/C","second compound 0.0316 µM, first compound 0.0316 µM",35.9%
same,"viability, T/C","second compound 0.0316 µM, first compound 0.1 µM",26.5%
same,"viability, T/C","second compound 0.1 µM, first compound 0.000316 µM",52%
same,"viability, T/C","second compound 0.1 µM, first compound 0.001 µM",52.7%
same,"viability, T/C","second compound 0.1 µM, first compound 0.00316 µM",51.2%
same,"viability, T/C","second compound 0.1 µM, first compound 0.01 µM",45.3%
same,"viability, T/C","second compound 0.1 µM, first compound 0.0316 µM",32.5%
same,"viability, T/C","second compound 0.1 µM, first compound 0.1 µM",23.2%
same,"viability, T/C","second compound 0.316 µM, first compound 0.000316 µM",56.5%
same,"viability, T/C","second compound 0.316 µM, first compound 0.001 µM",60.7%
same,"viability, T/C","second compound 0.316 µM, first compound 0.00316 µM",54.8%
same,"viability, T/C","second compound 0.316 µM, first compound 0.01 µM",44.4%
same,"viability, T/C","second compound 0.316 µM, first compound 0.0316 µM",17.5%
same,"viability, T/C","second compound 0.316 µM, first compound 0.1 µM",13.7%
same,"viability, T/C","second compound 1 µM, first compound 0.000316 µM",50.6%
same,"viability, T/C","second compound 1 µM, first compound 0.001 µM",45.7%
same,"viability, T/C","second compound 1 µM, first compound 0.00316 µM",46.9%
same,"viability, T/C","second compound 1 µM, first compound 0.01 µM",39.4%
same,"viability, T/C","second compound 1 µM, first compound 0.0316 µM",21.6%
same,"viability, T/C","second compound 1 µM, first compound 0.1 µM",10.9%
CNC(C)C(=O)NC1CN(S(=O)(=O)c2cccc(S(=O)(=O)N3CCC4CCC(C(=O)NC(c5ccccc5)c5ccccc5)N4C(=O)C(NC(=O)C(C)NC)C3)c2)CCC2CCC(C(=O)NC(c3ccccc3)c3ccccc3)N2C1=O (stereo not given) + CCN1C(C(=O)NC23CCC(C(=O)O)(CC2)CC3)C(c2cccc(Cl)c2F)C2(C(=O)Nc3cc(Cl)ccc32)C12CCCCC2,IC50,second compound 0.03 µM,> 1000 nM
same,IC50,second compound 0.0949 µM,> 1000 nM
same,IC50,second compound 0.3 µM,> 1000 nM
same,IC50,second compound 0.949 µM,> 1000 nM
same,IC50,second compound 3 µM,287 nM
same,"viability, T/C","second compound 0.03 µM, first compound 0.00316 µM",71.4%
same,"viability, T/C","second compound 0.03 µM, first compound 0.01 µM",62.7%
same,"viability, T/C","second compound 0.03 µM, first compound 0.0316 µM",57.5%
same,"viability, T/C","second compound 0.03 µM, first compound 0.1 µM",57%
same,"viability, T/C","second compound 0.03 µM, first compound 0.316 µM",58%
same,"viability, T/C","second compound 0.03 µM, first compound 1 µM",51.7%
same,"viability, T/C","second compound 0.0949 µM, first compound 0.00316 µM",61.2%
same,"viability, T/C","second compound 0.0949 µM, first compound 0.01 µM",69.8%
same,"viability, T/C","second compound 0.0949 µM, first compound 0.0316 µM",65%
same,"viability, T/C","second compound 0.0949 µM, first compound 0.1 µM",68.7%
same,"viability, T/C","second compound 0.0949 µM, first compound 0.316 µM",53.7%
same,"viability, T/C","second compound 0.0949 µM, first compound 1 µM",57.3%
same,"viability, T/C","second compound 0.3 µM, first compound 0.00316 µM",64.9%
same,"viability, T/C","second compound 0.3 µM, first compound 0.01 µM",79.5%
same,"viability, T/C","second compound 0.3 µM, first compound 0.0316 µM",66.3%
same,"viability, T/C","second compound 0.3 µM, first compound 0.1 µM",53.9%
same,"viability, T/C","second compound 0.3 µM, first compound 0.316 µM",62.6%
same,"viability, T/C","second compound 0.3 µM, first compound 1 µM",59.4%
same,"viability, T/C","second compound 0.949 µM, first compound 0.00316 µM",77.3%
same,"viability, T/C","second compound 0.949 µM, first compound 0.01 µM",64.3%
same,"viability, T/C","second compound 0.949 µM, first compound 0.0316 µM",62.7%
same,"viability, T/C","second compound 0.949 µM, first compound 0.1 µM",65.2%
same,"viability, T/C","second compound 0.949 µM, first compound 0.316 µM",55.9%
same,"viability, T/C","second compound 0.949 µM, first compound 1 µM",61.1%
same,"viability, T/C","second compound 3 µM, first compound 0.00316 µM",77.9%
same,"viability, T/C","second compound 3 µM, first compound 0.01 µM",66.8%
same,"viability, T/C","second compound 3 µM, first compound 0.0316 µM",59.2%
same,"viability, T/C","second compound 3 µM, first compound 0.1 µM",48.3%
same,"viability, T/C","second compound 3 µM, first compound 0.316 µM",53.5%
same,"viability, T/C","second compound 3 µM, first compound 1 µM",47.7%
